We go through 9 compounds from patent US20230081426A1, “COMPOUNDS AND METHODS FOR KRAS MODULATION AND INDICATIONS THEREFOR” (Plexxikon Inc., priority 2020, published 2023).

Experiment [1] has as its target T1, G12V-mutant human KRAS (amino acid residues 1-188) (Homo sapiens, UniProt P01116, G12V).
T1 construct: G12V-mutant human KRAS (amino acid residues 1-188) with FLAG tag was purified from E. coli; made in house; host or cells: E. coli
The experiment in a line: KRAS Binding Competition Assay (AlphaScreen; biotinylated KRpep-2d analogue), G12V. The note with it: geometric mean, read-out: KRAS GMean IC50 (uM) MUTATION: G12V.

The target in experiment [2] is T2, G12D-mutant human KRAS (amino acid residues 1-188) (Homo sapiens, UniProt P01116, G12D).
T2 construct: G12D or G12C-mutant human KRAS (amino acid residues 1-188) with FLAG tag; made in house; host or cells: E. coli
In words: KRAS Binding Disruption Assay (AlphaScreen; biotinylated KRpep-2d analogue or RAF1-RBD), G12D. Conditions: KRAS G12D; geometric mean; read-out: KRAS GMean IC50 (uM) MUTATION: G12D. Summed up: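 Displacement format with mutant KRAS, biotinylated KRpep-2d analogue or RAF1-RBD (5-20 nM each) at pH 7.5 with 5 mM MgCl2.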

Molecules are shown by their SMILES.

For `CN(C)CCCS(=O)(=O)N1[C@@H]2CC[C@H]1CN(c1nc(OC[C@@H]3CCCN3C)nc3c(F)c(-c4cc(O)cc5ccccc45)ccc13)C2` [P-0380, 4-(4-((1R,5S)-8-((3-(dimethylamino)propyl)sulfonyl)-3,8-diazabicyclo[3.2.1]octan-3-yl)-8-fluoro-2-(((S)-1-methylpyrrolidin-2-yl)methoxy)quinazolin-7-yl)naphthalen-2-ol], the 50% inhibitory concentration (IC50) was 10 to 100 µM in experiment [1] and 0.0001 to 10 µM in experiment [2].

As for `Oc1cc(-c2ccc3c(N4C[C@H]5CC[C@@H](C4)N5)nc(N4CC5CCC(C4)N5)nc3c2F)c2ccccc2c1` [P-0381, 4-(4-((1R,5S)-3,8-diazabicyclo[3.2.1]octan-3-yl)-2-(3,8-diazabicyclo[3.2.1]octan-3-yl)-8-fluoroquinazolin-7-yl)naphthalen-2-ol], the IC50 was 100 to 1000 µM in experiment [1] and 0.0001 to 10 µM in experiment [2].

With `CN1CCC[C@H]1COc1nc(N2C[C@H]3CC[C@@H](C2)N3C(=O)CCn2ccnc2)c2ccc(-c3cc(O)cc4ccccc34)cc2n1` [P-0382, 1-((1R,5S)-3-(7-(3-hydroxynaphthalen-1-yl)-2-(((S)-1-methylpyrrolidin-2-yl)methoxy)quinazolin-4-yl)-3,8-diazabicyclo[3.2.1]octan-8-yl)-3-(1H-imidazol-1-yl)propan-1-one], the half-inhibitory concentration (IC50) in experiment [1] and in experiment [2] was 0.0001 to 10 µM in each case.

On to `CN1CCC[C@H]1COc1nc(N2C[C@H]3CC[C@@H](C2)N3C(=O)CCC#N)c2ccc(-c3cc(O)cc4ccccc34)cc2n1` [P-0383, 4-((1R,5S)-3-(7-(3-hydroxynaphthalen-1-yl)-2-(((S)-1-methylpyrrolidin-2-yl)methoxy)quinazolin-4-yl)-3,8-diazabicyclo[3.2.1]octan-8-yl)-4-oxobutanenitrile], for which the 50% inhibitory concentration (IC50) in experiment [1] was 0.0001 to 10 µM; in experiment [2], 10 to 100 µM.

In the case of `CN1CCC[C@H]1COc1nc(N2C[C@H]3CC[C@@H](C2)N3)c2ccc(-c3cc(O)c(F)c4ccccc34)cc2n1` [P-0385, 4-(4-((1R,5S)-3,8-diazabicyclo[3.2.1]octan-3-yl)-2-(((S)-1-methylpyrrolidin-2-yl)methoxy)quinazolin-7-yl)-1-fluoronaphthalen-2-ol], the IC50 lay in the range of 10 to 100 µM in experiment [1] and 0.0001 to 10 µM in experiment [2].

In the case of `CN1C(=O)C(CC(=O)N2[C@@H]3CC[C@H]2CN(c2nc(OCC45CCCN4CCC5)nc4c(F)c(-c5cc(O)cc6ccccc56)ccc24)C3)N(C)C1=O` (stereo partly drawn) [P-0386, 5-(2-((1R,5S)-3-(8-fluoro-7-(3-hydroxynaphthalen-1-yl)-2-((tetrahydro-1H-pyrrolizin-7a(5H)-yl)methoxy)quinazolin-4-yl)-3,8-diazabicyclo[3.2.1]octan-8-yl)-2-oxoethyl)-1,3-dimethylimidazolidine-2,4-dione], the concentration for half-maximal inhibition (IC50) in experiment [1] and in experiment [2] was 0.0001 to 10 µM each time.

Turning to `Cc1[nH][nH]c(=O)c1CC(=O)N1[C@@H]2CC[C@H]1CN(c1nc(OCC34CCCN3CCC4)nc3c(F)c(-c4cc(O)cc5ccccc45)ccc13)C2` [P-0388, 4-(2-((1R,5S)-3-(8-fluoro-7-(3-hydroxynaphthalen-1-yl)-2-((tetrahydro-1H-pyrrolizin-7a(5H)-yl)methoxy)quinazolin-4-yl)-3,8-diazabicyclo[3.2.1]octan-8-yl)-2-oxoethyl)-5-methyl-1,2-dihydro-3H-pyrazol-3-one], the IC50 in experiment [1] and in experiment [2] was 0.0001 to 10 µM each time.

Consider `O=[N+]([O-])c1ccc(COc2nc(N3C[C@H]4CC[C@@H](C3)N4)c3cc(Cl)c(-c4c(O)cccc4F)c(F)c3n2)cc1` [P-0389, 2-(4-((1R,5S)-3,8-diazabicyclo[3.2.1]octan-3-yl)-6-chloro-8-fluoro-2-((4-nitrobenzyl)oxy)quinazolin-7-yl)-3-fluorophenol], for which the IC50 in experiment [1] was 10 to 100 µM; in experiment [2], 0.0001 to 10 µM.

Take `CN(C)c1cccc(Oc2nc(N3C[C@H]4CC[C@@H](C3)N4)c3cc(Cl)c(-c4c(O)cccc4F)c(F)c3n2)c1` [P-0390, 2-(4-((1R,5S)-3,8-diazabicyclo[3.2.1]octan-3-yl)-6-chloro-2-(3-(dimethylamino)phenoxy)-8-fluoroquinazolin-7-yl)-3-fluorophenol]: the IC50 in experiment [1] and in experiment [2] was 0.0001 to 10 µM in each case.
